Earlier results on 1 molecule are cited in patent US9943488B2, “Gamma hydroxybutyric acid granules” (DEBREGEAS ET ASSOCIES PHARMA, priority 2011, dated 2018).

The conditions of this series: after oral administration.

Regarding `O=C(O)CCCO` [GHB, Gamma-hydroxybutyric acid], the Absolute bio-availability was 25%.
